Reference: patent US20260201008A1, “SECRETIN-DERIVED GLP1R SELECTIVE AGONISTS” (GUBRA A/S, priority 2023, published 2026)
Read-outs that look alike come from different tables or passages of the source. Numbered stars: 1 amine (or outer) side, 2 acyl side, 3 side chain; on linkers, the order of the positions; unused ones are H or OH. Square brackets hold non-standard residues; d marks the D form. Side chains are listed from the residue outwards. Peptide text beside a SMILES is read from it. * marks the point of attachment. C20 diacid = O=C(O)CCCCCCCCCCCCCCCCCCC(=O)*; γGlu = O=C(O)[C@H](CCC(=O)[*:2])N[*:1]; AEEA = NCCOCCOCC(=O)O; Aib = CC(C)(N)C(=O)O

Legend:
SCTR = SCTR (Homo sapiens, UniProt P47872); test: hSCTR potency, cAMP accumulation in CHO-K1 cells stably overexpressing hSCTR; type: cell-based; design: alternatively Euroscreen ES-712-AF; FAST-0161L; host or cells: CHO-K1; conditions: cAMP accumulation, CHO-K1 cells overexpressing hSCTR
Summary of the method: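 Thawed CHO-K1 cells carrying stable hSCTR are plated into casein/IBMX buffer (0.05%, 0.5 mM), dosed immediately for 30 min at room temperature, then cAMP is detected by TR-FRET. Purified peptides run as 11 three-fold dilutions in duplicate, and curves are fitted with variable slope.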

GLP1R = GLP1R (Homo sapiens, UniProt P43220); test: hGLP1R potency, cAMP accumulation in CHO-K1 cells stably overexpressing hGLP1R; type: cell-based; design: host or cells: CHO-K1; conditions: for EC50: cAMP accumulation, CHO-K1 cells overexpressing hGLP1R; for SCTR EC50/GLP1R EC50 ratio: selectivity for hGLP1R over hSCTR, cAMP accumulation in CHO-K1 cells; for Selectivity: SCTR EC50/GLP1R EC50 ratio
Summary of the method: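 2000 cells/well, DPBS + 0.05% casein + 0.5 mM IBMX; 30 min RT stimulation; HTRF cAMP detection after 1 h. Purified: 3-fold ×11, n=2; crude: 10-fold ×5, n=1. EC50 by variable-slope fit.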

[1] = Turbidity of crude library peptides (absorbance at 600 nm); type: physicochemical; conditions: Physical stability of peptides
Summary of the method: (§1)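 Turbidity is the absorbance at 600 nm, taken before heating. Fibril signal is the mean ThT emission at 480 nm (450 nm excitation), read every 10 min over 72 h at 40° C with 700 rpm shaking between reads. Peptides at 267 μM, pH 4.0 acetate or pH 7.0 phosphate buffer (50 mM), 4 μM ThT final.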

[2] = Fibril formation of crude library peptides (Thioflavin T); type: physicochemical; design: key: average ThT fluorescence emission at 480 nm (ex 450 nm), raw units; conditions: Physical stability of peptides
Summary of the method: as §1

[3] = read-out: hSCTR pEC50 (converted)
[4] = read-out: hGLP1R pEC50 (converted)
[5] = read-out: pEC50 hSCTR (converted)
[6] = read-out: pEC50 hGLPR1 (converted)

Chain of SCTR (P47872 23-440): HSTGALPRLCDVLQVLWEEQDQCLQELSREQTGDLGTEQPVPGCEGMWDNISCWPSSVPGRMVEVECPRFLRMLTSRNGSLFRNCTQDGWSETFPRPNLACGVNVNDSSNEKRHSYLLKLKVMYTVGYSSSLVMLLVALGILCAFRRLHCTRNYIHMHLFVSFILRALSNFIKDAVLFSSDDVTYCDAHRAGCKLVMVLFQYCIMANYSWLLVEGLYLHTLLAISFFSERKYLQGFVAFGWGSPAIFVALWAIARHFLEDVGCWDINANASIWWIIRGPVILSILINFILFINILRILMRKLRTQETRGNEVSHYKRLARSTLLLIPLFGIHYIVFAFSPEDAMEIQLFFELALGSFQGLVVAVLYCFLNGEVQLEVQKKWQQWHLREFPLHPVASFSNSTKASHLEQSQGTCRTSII
Chain of GLP1R (P43220 24-463): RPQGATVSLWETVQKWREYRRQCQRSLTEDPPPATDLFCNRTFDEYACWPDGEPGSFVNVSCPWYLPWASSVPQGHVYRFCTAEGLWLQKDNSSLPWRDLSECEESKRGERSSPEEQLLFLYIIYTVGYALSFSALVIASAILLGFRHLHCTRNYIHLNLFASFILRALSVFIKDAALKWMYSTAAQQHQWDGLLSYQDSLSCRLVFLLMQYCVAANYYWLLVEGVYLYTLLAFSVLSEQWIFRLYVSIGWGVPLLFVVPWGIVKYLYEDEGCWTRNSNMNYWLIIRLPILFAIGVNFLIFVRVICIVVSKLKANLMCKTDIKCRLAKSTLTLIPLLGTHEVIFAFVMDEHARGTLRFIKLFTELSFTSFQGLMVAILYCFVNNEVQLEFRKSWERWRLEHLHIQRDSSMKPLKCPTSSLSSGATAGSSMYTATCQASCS

SMILES | EC50 (SCTR; [3]) | EC50 (GLP1R; [4]) | SCTR EC50/GLP1R EC50 ratio (GLP1R) | Turbidity (pH 7) [1] | Fibril formation [2] | EC50 (SCTR; [5]) | Selectivity (GLP1R) | EC50 (GLP1R; [6])
CC(C)C[C@H](NC(=O)[C@H](Cc1ccccc1)NC(=O)[C@H](CCCNC(=N)N)NC(=O)[C@H](CCC(N)=O)NC(=O)[C@H](CO)NC(=O)[C@H](C)NC(=O)[C@H](C)NC(=O)[C@H](CCC(=O)O)NC(=O)[C@H](CCC(=O)O)NC(=O)[C@H](CCCCNC(=O)COCCOCCNC(=O)COCCOCCNC(=O)CC[C@H](NC(=O)CCCCCCCCCCCCCCCCCCC(=O)O)C(=O)O)NC(=O)[C@H](CC(C)C)NC(=O)[C@H](Cc1ccc(O)cc1)NC(=O)[C@H](CO)NC(=O)[C@@H](NC(=O)[C@H](CC(=O)O)NC(=O)[C@H](CO)NC(=O)[C@@H](NC(=O)[C@H](Cc1ccccc1)NC(=O)[C@@H](NC(=O)CNC(=O)[C@H](CCC(=O)O)NC(=O)C(C)(C)NC(=O)[C@@H](N)Cc1c[nH]cn1)[C@@H](C)O)[C@@H](C)O)C(C)C)C(=O)N[C@@H](CCC(=O)O)C(=O)N[C@@H](Cc1c[nH]cn1)C(=O)N[C@@H](CC(C)C)C(=O)N[C@H](C(N)=O)C(C)C [compound 75] (H-H[Aib]EGTFTSDVSYLK([AEEA-AEEA-γGlu-C20 diacid])EEAASQRFLEHLV-NH2) | – | – | – | 0.08 | 9457 | 3160 nM | 133506 | 0.0251 nM
CC(C)C[C@H](NC(=O)[C@H](Cc1ccccc1)NC(=O)[C@H](CCCNC(=N)N)NC(=O)[C@H](CCC(N)=O)NC(=O)[C@H](CO)NC(=O)[C@H](C)NC(=O)[C@H](C)NC(=O)[C@H](CCC(=O)O)NC(=O)[C@H](CCC(=O)O)NC(=O)[C@H](CCCCNC(=O)COCCOCCNC(=O)COCCOCCNC(=O)CC[C@H](NC(=O)CCCCCCCCCCCCCCCCCCC(=O)O)C(=O)O)NC(=O)[C@H](CC(C)C)NC(=O)[C@H](Cc1ccccc1)NC(=O)[C@H](CO)NC(=O)[C@@H](NC(=O)[C@H](CC(=O)O)NC(=O)[C@H](CO)NC(=O)[C@@H](NC(=O)[C@H](Cc1ccccc1)NC(=O)[C@@H](NC(=O)CNC(=O)[C@H](CCC(=O)O)NC(=O)C(C)(C)NC(=O)[C@@H](N)Cc1c[nH]cn1)[C@@H](C)O)[C@@H](C)O)C(C)C)C(=O)N[C@@H](CCC(=O)O)C(=O)N[C@@H](Cc1c[nH]cn1)C(=O)N[C@@H](CC(C)C)C(=O)N[C@H](C(N)=O)C(C)C [compound 38] (H-H[Aib]EGTFTSDVSFLK([AEEA-AEEA-γGlu-C20 diacid])EEAASQRFLEHLV-NH2) | – | – | – | 0.09 | 38424 | 1000 nM | 35785 | 0.0316 nM
CC(C)C[C@H](NC(=O)[C@H](Cc1ccccc1)NC(=O)[C@H](CCCNC(=N)N)NC(=O)[C@H](CCC(N)=O)NC(=O)C(C)(C)NC(=O)[C@H](C)NC(=O)[C@H](C)NC(=O)[C@H](CCC(=O)O)NC(=O)[C@H](CCC(=O)O)NC(=O)[C@H](CCCCNC(=O)COCCOCCNC(=O)COCCOCCNC(=O)CC[C@H](NC(=O)CCCCCCCCCCCCCCCCCCC(=O)O)C(=O)O)NC(=O)[C@H](CC(C)C)NC(=O)[C@H](CCCNC(=N)N)NC(=O)[C@H](CO)NC(=O)[C@@H](NC(=O)[C@H](CC(=O)O)NC(=O)[C@H](CO)NC(=O)[C@@H](NC(=O)[C@H](Cc1ccccc1)NC(=O)[C@@H](NC(=O)CNC(=O)[C@H](CCC(=O)O)NC(=O)C(C)(C)NC(=O)[C@@H](N)Cc1c[nH]cn1)[C@@H](C)O)[C@@H](C)O)C(C)C)C(=O)N[C@@H](CCC(=O)O)C(=O)N[C@@H](Cc1c[nH]cn1)C(=O)N[C@@H](CC(C)C)C(=O)N[C@H](C(N)=O)C(C)C [compound 1] (H-H[Aib]EGTFTSDVSRLK([AEEA-AEEA-γGlu-C20 diacid])EEAA[Aib]QRFLEHLV-NH2) | – | – | – | 0.08 | 11494 | 158 nM | 4325 | 0.0398 nM

Results, then the molecule that gave them:

EC50 (SCTR; [3]) | EC50 (GLP1R; [4]) | SCTR EC50/GLP1R EC50 ratio (GLP1R) | Turbidity (pH 7) [1] | Fibril formation [2] | EC50 (SCTR; [5]) | Selectivity (GLP1R) | EC50 (GLP1R; [6]) | SMILES
126 nM | 0.0251 nM | 5170 | 0.08 | 3061 | – | – | – | CC(C)C[C@H](NC(=O)[C@H](Cc1ccccc1)NC(=O)[C@H](CCCNC(=N)N)NC(=O)[C@H](CCC(N)=O)NC(=O)[C@H](CC(C)C)NC(=O)C(C)(C)NC(=O)[C@H](C)NC(=O)[C@H](CCC(=O)O)NC(=O)[C@H](CCC(=O)O)NC(=O)[C@H](CCCCNC(=O)COCCOCCNC(=O)COCCOCCNC(=O)CC[C@H](NC(=O)CCCCCCCCCCCCCCCCCCC(=O)O)C(=O)O)NC(=O)[C@H](CC(C)C)NC(=O)[C@H](Cc1ccc(O)cc1)NC(=O)[C@H](CO)NC(=O)[C@@H](NC(=O)[C@H](CC(=O)O)NC(=O)[C@H](CO)NC(=O)[C@@H](NC(=O)[C@H](Cc1ccccc1)NC(=O)[C@@H](NC(=O)CNC(=O)[C@H](CCC(=O)O)NC(=O)C(C)(C)NC(=O)[C@@H](N)Cc1c[nH]cn1)[C@@H](C)O)[C@@H](C)O)C(C)C)C(=O)N[C@@H](CCC(=O)O)C(=O)N[C@@H](CCC(=O)O)C(=O)N[C@@H](CC(C)C)C(=O)N[C@H](C(N)=O)C(C)C [compound 151] (H-H[Aib]EGTFTSDVSYLK([AEEA-AEEA-γGlu-C20 diacid])EEA[Aib]LQRFLEELV-NH2)
200 nM | 0.0158 nM | 11144 | 0.12 | 53478 | – | – | – | CC[C@H](C)[C@H](NC(=O)[C@H](Cc1ccccc1)NC(=O)[C@H](CCCNC(=N)N)NC(=O)[C@H](CCC(N)=O)NC(=O)[C@H](CC(C)C)NC(=O)[C@H](C)NC(=O)[C@H](C)NC(=O)CNC(=O)[C@H](CCC(=O)O)NC(=O)[C@H](CC(C)C)NC(=O)[C@H](CC(C)C)NC(=O)[C@H](CCC(=O)O)NC(=O)[C@H](CO)NC(=O)[C@@H](NC(=O)[C@H](CC(=O)O)NC(=O)[C@H](CO)NC(=O)[C@@H](NC(=O)[C@H](Cc1ccccc1)NC(=O)[C@@H](NC(=O)CNC(=O)[C@H](CCC(=O)O)NC(=O)C(C)(C)NC(=O)[C@@H](N)Cc1c[nH]cn1)[C@@H](C)O)[C@@H](C)O)C(C)C)C(=O)N[C@@H](CCC(N)=O)C(=O)N[C@@H](Cc1c[nH]c2ccccc12)C(=O)N[C@@H](CC(C)C)C(=O)N[C@H](C(N)=O)C(C)C [compound 180] (H-H[Aib]EGTFTSDVSELLEGAALQRFIQWLV-NH2)
200 nM | 0.02 nM | 10415 | 0.08 | 3358 | – | – | – | CC(C)C[C@H](NC(=O)[C@H](C)NC(=O)[C@H](CCC(=O)O)NC(=O)[C@H](CCC(=O)O)NC(=O)[C@H](CCCCNC(=O)COCCOCCNC(=O)COCCOCCNC(=O)CC[C@H](NC(=O)CCCCCCCCCCCCCCCCCCC(=O)O)C(=O)O)NC(=O)[C@H](CC(C)C)NC(=O)[C@H](Cc1ccc(O)cc1)NC(=O)[C@H](CO)NC(=O)[C@@H](NC(=O)[C@H](CC(=O)O)NC(=O)[C@H](CO)NC(=O)[C@@H](NC(=O)[C@H](Cc1ccccc1)NC(=O)[C@@H](NC(=O)CNC(=O)[C@H](CCC(=O)O)NC(=O)C(C)(C)NC(=O)[C@@H](N)Cc1c[nH]cn1)[C@@H](C)O)[C@@H](C)O)C(C)C)C(=O)N[C@@H](CC(C)C)C(=O)N[C@@H](CCC(N)=O)C(=O)N[C@@H](CCCNC(=N)N)C(=O)N[C@@H](Cc1ccccc1)C(=O)N[C@@H](CC(C)C)C(=O)N[C@@H](CCC(=O)O)C(=O)N[C@@H](Cc1c[nH]cn1)C(=O)N[C@@H](CC(C)C)C(=O)N[C@H](C(N)=O)C(C)C [compound 132] (H-H[Aib]EGTFTSDVSYLK([AEEA-AEEA-γGlu-C20 diacid])EEALLQRFLEHLV-NH2)
1580 nM | 0.01 nM | 145949 | 0.09 | 10277 | – | – | – | CC(C)C[C@H](NC(=O)[C@H](Cc1ccccc1)NC(=O)[C@H](CCCNC(=N)N)NC(=O)[C@H](CCC(N)=O)NC(=O)C(C)(C)NC(=O)[C@H](C)NC(=O)[C@H](C)NC(=O)[C@H](CCC(=O)O)NC(=O)[C@H](CCC(=O)O)NC(=O)[C@H](CCCCNC(=O)COCCOCCNC(=O)COCCOCCNC(=O)CC[C@H](NC(=O)CCCCCCCCCCCCCCCCCCC(=O)O)C(=O)O)NC(=O)[C@H](CC(C)C)NC(=O)[C@H](CCC(=O)O)NC(=O)[C@H](CO)NC(=O)[C@@H](NC(=O)[C@H](CC(=O)O)NC(=O)[C@H](CO)NC(=O)[C@@H](NC(=O)[C@H](Cc1ccccc1)NC(=O)[C@@H](NC(=O)CNC(=O)[C@H](CCC(=O)O)NC(=O)C(C)(C)NC(=O)[C@@H](N)Cc1c[nH]cn1)[C@@H](C)O)[C@@H](C)O)C(C)C)C(=O)N[C@@H](CCC(=O)O)C(=O)N[C@@H](Cc1c[nH]cn1)C(=O)N[C@@H](CC(C)C)C(=O)N[C@H](C(N)=O)C(C)C [compound 97] (H-H[Aib]EGTFTSDVSELK([AEEA-AEEA-γGlu-C20 diacid])EEAA[Aib]QRFLEHLV-NH2)
